Test results as given in US4725597A, “Bis(piperazinyl or homopiperazinyl)alkanes” (Boehringer Ingelheim Ltd., priority 1984, dated 1988).
Where a name gives a salt, the structure may show the parent alone.

How the values were obtained:
[1] = test system: human leukocytes (basophils); assay: Inhibition of histamine release from human leukocytes (basophils), Procedure A; type: cell-based; conditions: Leukocyte, 1 h, rabbit anti-human IgE, 37° C., 60 minutes, (d) No response detected at highest dose indicated, read-out: In Vitro Inhibition of Histamine Release IC50, Procedure A
Method: A. Procedure for Determining Inhibition of Histamine Release from Human Leukocytes (Basophils) 1. Separation of Leukocytes: A modification of the method of L. Lichtenstein and A. Osler, J. Exp. Med. 120, 507 (1964) is used. Heparinized human blood (80-100 ml) is mixed with 20 ml of saline (0.2%) containing 0.6 gm of dextrose and 1.2 gm dextran in propylene centrifuge tubes. The mixture is kept at ambient temperature for 60-90 minutes to allow the separation of erythrocytes from the platelet-leukocyte-rich supernate. The supernate is removed and centrifuged for 8 minutes at 110×g in cold. The leukocyte pellet is washed twice with Tris buffer and finally suspended in 150-180 ml Tris-ACM buffer at 1-2×10^6 cells/ml. 2. Reaction Mixture: The reaction is carried out in 12×75 mm plastic tubes at a total volume of […]. The reaction medium includes 0.05 ml rabbit anti-human IgE (the antigen), 0.2 ml of the test compound in water at concentrations ranging from 10-100 μM, and 0.1 ml of the leukocyte suspension. The reaction mixture is incubated in a 37° C. shaking water bath for 60 minutes. Upon completion of the reaction, the tubes are centrifuged and the supernatants collected. The protein is removed from the supernatants by precipitation with 0.2 ml of 8% perchloric acid. 3. Histamine Assay: Histamine release is measured by the automated fluorometric method of W. Siraganian and W. Hook in Chapter 102 of the Manual of Clinical Immunology, 2nd Edition, edited by R. Rose and H. Friedman, published by the American Society for Microbiology, Washington, D.C. 1980. Percent inhibition is calculated as follows: [formula] The concentration which causes a 50 percent inhibition (IC50) of histamine release is interpolated from a plot of percent inhibition versus logarithm of drug concentration.

[2] = test system: rat peritoneal mast cells; assay: Inhibition of histamine release from rat peritoneal mast cells, Procedure B; type: cell-based; conditions: Mast cell, 1 h, sheep anti-rat IgE or ovalbumin, 37° C., 60 minutes, (d) No response detected at highest dose indicated, read-out: In Vitro Inhibition of Histamine Release IC50, Procedure B
Method: B. Procedure for Determining Inhibition of Histamine Release from Rat Peritoneal Mast Cells 1. Harvest of Peritoneal Mast Cells: After the rats are sacrificed with ether, 20 ml of Minimum Essential Medium (MEM) containing 20 units/ml heparin is injected into the peritoneum. The abdomen is massaged for one minute and the lavage fluid collected. The peritoneal cells are centrifuged at 1800 rpm for 8 minutes in cold. After two washes with Tris A buffer, the cells are resuspended in Tris ACM buffer at 2-4×10^6 cells/ml. 2. Reaction Mixture: The reaction is carried out in 12×75 mm plastic tubes at a total volume of 1.25 ml. The reaction mixture includes 0.5 ml (10-1000 μg) sheep anti-rat IgE or ovalbumin, 0.2 ml of the test compound in water at concentrations ranging from 10-1000 μM, […] phosphatidylserine solution (20-60 μg to each tube), and 0.5 ml of cell suspension. The reaction mixture is incubated in a 37° C. shaking water bath for 60 minutes. Upon completion of the reaction, the tubes are centrifuged and the supernatants collected. The protein is removed from the supernatants by precipitation with 0.2 ml of 8% perchloric acid. 3. Histamine Assay: Histamine release is measured by the automated fluorometric method of Siraganian, supra. The concentration which causes a 50% inhibition (IC50) of histamine release is computed as in Part A.

[3] = test system: guinea pig basophils; assay: Inhibition of histamine release from guinea pig basophils, Procedure C; type: cell-based; conditions: Cavia porcellus, 1 h, ovalbumin-sensitized, 37° C., 60 minutes, read-out: In Vitro Inhibition of Histamine Release IC50, Procedure C
Method: C. Procedure for Determining Inhibition of Histamine Release from Guinea Pig Basophils 1. In Vivo Sensitization: Male Hartley guinea pigs (200-300 gms) are immunized on day 0 with two 0.05 ml intradermal injections of 200 μg ovalbumin. Sensitized basophils are available between days 13-25 post-sensitization. This mode of sensitization favors IgE response. 2. Separation of Leukocytes: The method of Lett-Brown et al., Int. Arch. Allergy, Appl. Immun. 64, 241 (1981) is used. Animals are anesthetized with ether and are bled via cardiac puncture with plastic syringes containing sufficient EDTA to provide a final concentration of 10 mM. One part of 3% gelatin in saline at 37° C. is mixed with two parts of blood in a 16×150 mm tube. The cells are allowed to sediment at a 30° angle for 45 minutes in a 37° C. water bath. The leukocyte-rich plasma is collected and centrifuged at 150×g for 30 minutes at room temperature. The pelleted cells are washed in Hepes-buffered saline (HG) containing 4 mM EDTA and resuspended in Hepes-buffered saline containing Mg^++ and Ca^++ (HGCM) at 4-5×10^6 cells/ml. 3. Reaction Mixture: The reaction is carried out in 12×75 mm plastic tubes and a total volume of 1.2 ml which includes 0.5 ml of antigen, 0.2 ml of drug solution at concentrations ranging from 10-1000 μM and 0.5 ml of prewashed cell suspension. The reaction mixture is incubated in a 37° C. shaking water bath for 60 minutes. Upon completion of the reaction, the tubes are centrifuged and the supernatants collected. The protein is removed from the supernatants by precipitation with 0.2 ml of 8% perchloric acid. 4. Histamine Assay: Histamine release is measured by the automated fluorometric method of Siraganian, supra. The concentration which causes a 50 percent inhibition of Histamine release is computed as in Part A.

[4] = Solubility limit; conditions: pH 7

Row | IC50 [1] [µM] | IC50 [2] [µM] | SMILES | IC50 [3] [µM] | solubility [4] [µg/mL]
1 | 3 | > 100 | Clc1ccc(CCN2CCN(CCCN3CCN(CCc4ccc(Cl)cc4)CC3)CC2)cc1 [Example 16, 1,3-Bis[4-(4-chlorophenethyl)-1-piperazinyl]propane] | 12 | –
2 | 6 | 9 | Clc1ccc(CN2CCCN(CCCN3CCCN(Cc4ccc(Cl)cc4)CC3)CC2)cc1 [Example 28, 1,3-Bis[4-(4-chlorobenzyl)-1-homopiperazinyl]propane tetrahydrochloride] | 2.3 | –

Row | SMILES | IC50 [1] [µM] | IC50 [2] [µM] | IC50 [3] [µM] | solubility [4] [µg/mL]
3 | Cl.Cl.Cl.Cl.Clc1ccc(CCCN2CCN(CCCN3CCN(CCCc4ccc(Cl)cc4)CC3)CC2)cc1.O [Example 24, 1,3 -Bis[4-(3-{4-chlorophenyl}propyl)-1-piperazinyl]propane tetrahydrochloride monohydrate] | 2 | 2 | 8.9 | 1000
